Results from ChEMBL document CHEMBL4311981, “Synthesis, anticancer activity, and molecular modeling of 1,4-naphthoquinones that inhibit MKK7 and Cdc25” (Eur J Med Chem, 2019).
Active and inactive are the calls of the source. No cut-off for these calls is given here.

Assays:
[1] = biological target: T1, Neutrophil elastase (Homo sapiens) (UniProt P08246); test: Inhibition of recombinant HNE (unknown origin) at <50 uM using N-methylsuccinyl-Ala-Ala-Pro-Val-7-amino-4-methylcoumarin, as a substrate measured every 30 sec for 10 mins by fluorometric assay
T1 sequence (whole entry): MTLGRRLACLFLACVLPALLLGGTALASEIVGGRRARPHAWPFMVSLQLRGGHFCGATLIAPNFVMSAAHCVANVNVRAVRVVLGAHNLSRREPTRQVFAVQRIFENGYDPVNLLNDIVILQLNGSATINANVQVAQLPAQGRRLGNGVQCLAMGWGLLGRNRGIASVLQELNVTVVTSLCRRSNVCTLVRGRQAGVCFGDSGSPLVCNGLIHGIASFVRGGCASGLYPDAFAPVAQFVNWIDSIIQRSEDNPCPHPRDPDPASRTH

[2] = biological target: T2, M-phase inducer phosphatase 1 (Homo sapiens) (UniProt P30304); test: Inhibition of recombinant Cdc25A (unknown origin) at <50 uM using OMFP as substrate measured every 30 sec for 10 mins by fluorometric assay
T2 sequence (whole entry): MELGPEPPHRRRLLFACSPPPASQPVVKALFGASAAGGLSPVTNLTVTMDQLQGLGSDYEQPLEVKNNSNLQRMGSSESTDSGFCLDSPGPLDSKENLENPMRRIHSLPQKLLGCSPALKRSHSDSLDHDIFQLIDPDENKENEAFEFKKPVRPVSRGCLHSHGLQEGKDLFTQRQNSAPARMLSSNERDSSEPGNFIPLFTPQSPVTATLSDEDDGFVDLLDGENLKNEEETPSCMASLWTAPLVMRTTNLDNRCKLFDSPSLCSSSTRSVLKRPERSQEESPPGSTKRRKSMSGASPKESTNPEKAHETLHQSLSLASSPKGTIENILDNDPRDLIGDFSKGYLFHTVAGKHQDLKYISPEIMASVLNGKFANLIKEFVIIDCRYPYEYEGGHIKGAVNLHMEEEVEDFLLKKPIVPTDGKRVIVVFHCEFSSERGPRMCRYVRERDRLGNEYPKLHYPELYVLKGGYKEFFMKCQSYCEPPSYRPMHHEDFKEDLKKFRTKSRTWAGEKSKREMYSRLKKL

[3] = biological target: T3, Dual specificity mitogen-activated protein kinase kinase 7 (Homo sapiens) (UniProt O14733); test: Binding affinity to MKK7 (unknown origin) expressed in HEK293 cells assessed as dissociation constant at <30 uM by kinomescan method; assay type: cell-based
T3 sequence (whole entry): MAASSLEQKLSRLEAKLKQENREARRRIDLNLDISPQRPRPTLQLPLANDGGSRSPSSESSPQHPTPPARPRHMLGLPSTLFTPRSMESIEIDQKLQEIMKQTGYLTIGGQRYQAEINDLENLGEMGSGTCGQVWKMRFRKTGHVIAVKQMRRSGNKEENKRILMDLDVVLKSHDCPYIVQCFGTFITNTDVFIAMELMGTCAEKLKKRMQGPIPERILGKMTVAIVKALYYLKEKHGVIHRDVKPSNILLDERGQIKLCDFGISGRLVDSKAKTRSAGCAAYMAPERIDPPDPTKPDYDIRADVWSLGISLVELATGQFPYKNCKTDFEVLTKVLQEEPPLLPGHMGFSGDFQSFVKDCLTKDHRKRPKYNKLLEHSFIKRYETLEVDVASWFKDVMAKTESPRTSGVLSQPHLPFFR

[4] = biological target: T4, M-phase inducer phosphatase 2 (Homo sapiens) (UniProt P30305); test: Inhibition of recombinant Cdc25B (unknown origin) at <50 uM using OMFP as substrate measured every 30 sec for 10 mins by fluorometric assay
T4 sequence (whole entry): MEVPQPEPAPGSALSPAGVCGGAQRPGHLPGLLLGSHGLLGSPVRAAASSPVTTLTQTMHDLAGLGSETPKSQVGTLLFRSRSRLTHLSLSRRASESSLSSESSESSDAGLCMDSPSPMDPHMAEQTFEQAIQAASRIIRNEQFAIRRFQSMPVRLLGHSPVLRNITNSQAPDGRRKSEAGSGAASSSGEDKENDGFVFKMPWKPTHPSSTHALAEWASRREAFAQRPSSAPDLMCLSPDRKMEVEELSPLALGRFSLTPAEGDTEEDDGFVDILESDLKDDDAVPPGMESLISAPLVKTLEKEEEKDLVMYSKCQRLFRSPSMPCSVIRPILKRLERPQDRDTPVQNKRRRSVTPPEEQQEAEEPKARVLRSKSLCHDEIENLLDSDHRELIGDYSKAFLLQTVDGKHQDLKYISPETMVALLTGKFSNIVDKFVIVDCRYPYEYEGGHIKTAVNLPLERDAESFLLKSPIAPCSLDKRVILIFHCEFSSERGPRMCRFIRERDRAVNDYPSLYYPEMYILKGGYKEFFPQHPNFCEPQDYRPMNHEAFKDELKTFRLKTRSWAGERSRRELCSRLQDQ

[5] = test system: THP-1; test: Cytotoxicity against human THP1 cells assessed as reduction in cell viability incubated for 24 hrs by CellTiter-Glo luminescent cell viability assay; assay type: functional, cell-based; conditions: THP-1, 24 h
[6] = test system: A549; test: Cytotoxicity against human A549 cells assessed as reduction in cell viability incubated for 24 hrs by CellTiter-Glo luminescent cell viability assay; assay type: functional, cell-based; conditions: A549, 24 h
[7] = test system: PBMC; test: Cytotoxicity against human PBMC cells assessed as reduction in cell viability incubated for 24 hrs by CellTiter-Glo luminescent cell viability assay; assay type: cell-based; conditions: read-out: IC50
[8] = biological target: T5, M-phase inducer phosphatase 1 (Homo sapiens, UniProt P30304)
T5 sequence (P30304 whole entry): T2 sequence (whole entry)
Description: Inhibition of recombinant Cdc25A (unknown origin) using OMFP as substrate measured every 30 sec for 10 mins by fluorometric assay

[9] = biological target: T6, Dual specificity mitogen-activated protein kinase kinase 7 (Homo sapiens, UniProt O14733); test: biochemical
T6 sequence (O14733 whole entry): T3 sequence (whole entry)
Description: Binding affinity to MKK7 (unknown origin) expressed in HEK293 cells assessed as dissociation constant by kinomescan method

[10] = test system: LS174T; test: Cytotoxicity against human LS174T cells assessed as reduction in cell viability incubated for 24 hrs by CellTiter-Glo luminescent cell viability assay; assay type: functional, cell-based
[11] = biological target: T7, M-phase inducer phosphatase 2 (Homo sapiens, UniProt P30305)
T7 sequence (P30305 whole entry): T4 sequence (whole entry)
Description: Inhibition of recombinant Cdc25B (unknown origin) using OMFP as substrate measured every 30 sec for 10 mins by fluorometric assay

[12] = test system: U-937; test: Cytotoxicity against human U937 cells assessed as reduction in cell viability incubated for 24 hrs by CellTiter-Glo luminescent cell viability assay; assay type: functional, cell-based; conditions: U-937, 24 h
[13] = test system: Jurkat; test: cells; conditions: Homo sapiens, 24 h
Description: Cytotoxicity against human Jurkat cells assessed as reduction in cell viability incubated for 24 hrs by CellTiter-Glo luminescent cell viability assay

[14] = test system: MONO-MAC-6; test: Cytotoxicity against human MONO-MAC-6 cells assessed as reduction in cell viability incubated for 24 hrs by CellTiter-Glo luminescent cell viability assay; assay type: functional, cell-based; conditions: MONO-MAC-6, 24 h
[15] = test system: SW982; test: Cytotoxicity against human SW982 cells assessed as reduction in cell viability incubated for 24 hrs by CellTiter-Glo luminescent cell viability assay; assay type: functional, cell-based; conditions: SW982, 24 h
[16] = test system: HL-60; test: Cytotoxicity against human HL60 cells assessed as reduction in cell viability incubated for 24 hrs by CellTiter-Glo luminescent cell viability assay; assay type: functional, cell-based; conditions: HL-60, 24 h
[17] = test system: MCF7; test: Cytotoxicity against human MCF7 cells assessed as reduction in cell viability incubated for 24 hrs by CellTiter-Glo luminescent cell viability assay; assay type: functional, cell-based; conditions: MCF7, 24 h
[18] = test system: SW982; test: Cytotoxicity against human SW982 cells assessed as reduction in cell viability at <50 uM incubated for 24 hrs by CellTiter-Glo luminescent cell viability assay; assay type: functional, cell-based
[19] = test system: A549; test: Cytotoxicity against human A549 cells assessed as reduction in cell viability at <50 uM incubated for 24 hrs by CellTiter-Glo luminescent cell viability assay; assay type: functional, cell-based
[20] = test system: PBMC; test: Cytotoxicity against human PBMC cells assessed as reduction in cell viability at <50 uM incubated for 24 hrs by CellTiter-Glo luminescent cell viability assay; assay type: cell-based
[21] = test system: LS174T; test: Cytotoxicity against human LS174T cells assessed as reduction in cell viability at <50 uM incubated for 24 hrs by CellTiter-Glo luminescent cell viability assay; assay type: functional, cell-based
[22] = test system: Jurkat; test: Cytotoxicity against human Jurkat cells assessed as reduction in cell viability at <50 uM incubated for 24 hrs by CellTiter-Glo luminescent cell viability assay; assay type: functional, cell-based
[23] = test system: THP-1; test: Cytotoxicity against human THP1 cells assessed as reduction in cell viability at <50 uM incubated for 24 hrs by CellTiter-Glo luminescent cell viability assay; assay type: functional, cell-based
[24] = test system: MONO-MAC-6; test: Cytotoxicity against human MONO-MAC-6 cells assessed as reduction in cell viability at <50 uM incubated for 24 hrs by CellTiter-Glo luminescent cell viability assay; assay type: functional, cell-based
[25] = test system: U-937; test: Cytotoxicity against human U937 cells assessed as reduction in cell viability at <50 uM incubated for 24 hrs by CellTiter-Glo luminescent cell viability assay; assay type: functional, cell-based
[26] = test system: HL-60; test: Cytotoxicity against human HL60 cells assessed as reduction in cell viability at <50 uM incubated for 24 hrs by CellTiter-Glo luminescent cell viability assay; assay type: functional, cell-based
[27] = test system: MCF7; test: Cytotoxicity against human MCF7 cells assessed as reduction in cell viability at <50 uM incubated for 24 hrs by CellTiter-Glo luminescent cell viability assay; assay type: functional, cell-based
[28] = biological target: T8, Neutrophil elastase (Homo sapiens, UniProt P08246); test: Inhibition of recombinant HNE (unknown origin) using N-methylsuccinyl-Ala-Ala-Pro-Val-7-amino-4-methylcoumarin, as a substrate measured every 30 sec for 10 mins by fluorometric assay
T8 sequence (P08246 whole entry): T1 sequence (whole entry)

Compound	inhibition [1]	inhibition [3]	inhibition [4]	IC50 [5] [µM]	IC50 [7] [µM]	IC50 [8] [µM]	Kd [9] [µM]	IC50 [11] [µM]	IC50 [12] [µM]	IC50 [13] [µM]	IC50 [14] [µM]	IC50 [15] [µM]	IC50 [16] [µM]	IC50 [17] [µM]	Activity [3]	other results
COC(=O)c1ccc(NC2=C(OC)C(=O)c3ccccc3C2=O)cc1	inactive	inactive	inactive	–	–	–	–	–	–	–	–	–	–	–	–	inhibition [2]: inactive
O=C(O)c1cccc(NC2=C(Cl)C(=O)c3ccccc3C2=O)c1	inactive	–	–	8.6	37.9	32.9	1.9	24.3	7.6	8.2	13.4	5.5	12.1	28.5	–	IC50 [6]: 26.2 µM; IC50 [10]: 11.7 µM
O=C(O)CNC1=C(Cl)C(=O)c2ccccc2C1=O	inactive	inactive	inactive	–	–	36	–	–	–	–	–	–	–	–	–	–
O=C1C(Cl)=C(NCCCN2CCOCC2)C(=O)c2ccccc21	inactive	inactive	inactive	–	–	–	–	–	–	–	–	–	–	–	–	inhibition [2]: inactive
COC1=C(C)C(=O)c2ccccc2C1=O	inactive	–	–	47.3	–	22.3	–	33.1	35.1	49.2	18.4	–	20.4	–	inactive	Activity [18]: inactive; Activity [19]: inactive; Activity [20]: Non-Toxic; Activity [21]: inactive
CC(C)=CCC1=C(O)C(=O)c2ccccc2C1=O [LAPACHOL]	inactive	–	–	–	–	33.2	–	42.7	–	–	–	–	–	–	inactive	Activity [22]: inactive; Activity [23]: inactive; Activity [24]: inactive; Activity [25]: inactive; Activity [26]: inactive; Activity [18]: inactive; Activity [27]: inactive; Activity [19]: inactive; Activity [20]: Non-Toxic; Activity [21]: inactive
CC(C)(C)[C@H]1CC[C@H](CC2=C(O)C(=O)c3ccccc3C2=O)CC1 [BUPARVAQUONE]	inactive	–	–	–	–	–	–	12	–	–	–	–	–	–	inactive	inhibition [2]: inactive
CC(SC1=CC(=O)c2ccccc2C1=O)C(=O)O (centres undefined)	–	–	–	–	23.8	5.4	2.1	5.2	34.6	17.9	43.6	21.1	20.5	27.9	–	IC50 [28]: 36.1 µM
COc1ccc(OC)c2c1C(=O)C=C(SCCC(=O)O)C2=O	inactive	–	–	33.3	–	26	–	7.8	26.6	21.3	12.8	–	28.7	–	inactive	Activity [18]: inactive; Activity [27]: inactive; Activity [19]: inactive; Activity [20]: Non-Toxic; Activity [21]: inactive
O=C1C(Cl)=C(NCCO)C(=O)c2ccccc21	inactive	inactive	inactive	–	–	45.3	–	–	–	–	–	–	–	–	–	–
O=C1C(SCCO)=C(SCCO)C(=O)c2ccccc21	inactive	–	–	–	7.8	–	1.1	–	3.9	3.7	4.2	7.9	1	9.4	–	IC50 [6]: 13.1 µM; IC50 [10]: 18.1 µM
O=C1C(Cl)=C(NCCCO)C(=O)c2ccccc21	inactive	inactive	inactive	–	–	45.7	–	–	–	–	–	–	–	–	–	–
COC1=C(OC)C(=O)c2ccccc2C1=O	inactive	–	–	8.2	18.5	8.9	27	17.4	11.3	–	3.6	20.6	5.4	6.3	–	IC50 [6]: 15.6 µM; IC50 [10]: 27.9 µM
